These results are taken from patent publication US11970448B2, “Monomers capable of dimerizing in an aqueous solution, and methods of using same” (CORNELL UNIVERSITY, priority 2011, dated 2024).

Read-outs that look alike come from different tables or passages of the source.

The IC50 is the concentration needed to halve the response being measured.

The test concerns the target T1, recominbant human tryptase, beta, from lung (Homo sapiens, UniProt P20231).
T1 construct: purchased Promega or Enzo Life Sciences G5631 or BML-SE418
Nature of the test: Inhibition of tryptase activity by monomers and multimers (Boc-Gln-Ala-Arg-AMC fluorescence). It counts as biochemical. The conditions noted are these: monomers against tryptase. On the procedure:
Stock solutions of recominbant human tryptase, beta, from lung (Promega: catalog number G5631, or Enzo Life Sciences: catalog number BML-SE418) were made at 30 μM, in solution with 5 μM heparin sulfate and 1 M NaCl. Monomer tryptase inhibitor stock solutions were made at 50 mM in DMSO. Test substance plates were made at 1.2× the final concentration in assay buffer (50 mM HEPES, 150 mM NaCl, 100 μM EDTA, pH 7.4, 0.02% Tween-20). A final concentration of 1 nM tryptase was used. When required, test substances were diluted in water immediately before use in 10-fold serial dilutions. After the indicated incubation time, the test subtance-tryptase solution at 1.2× concentration, was diluted into assay buffer containing a final concentration of 200 μM N-tert-butoxycarbonyl-Gln-Ala-Arg-AMC HBr [AMC=7-amino-4-methylcoumarin] (Boc-Gln-Ala-Arg-AMC; Enzo Life Sciences: catalog number BML-P237) to a final volume of 50 μl in black opaque round bottom 96 well plates (Corning, catalog number 3792). The release of fluorescent AMC was immediately measured every 30 seconds over 15-30 minutes at an excitation wavelength of 367 nm, monitoring emission at 468 nm on a Spectramax M5 (Molecular Devices) microplate reader. The Softmax Pro (Molecular Devices) and Graphpad prism software were used to determine Vmax, and concentration-response curve IC50s, respectively.

[1] abbreviates: Table 5, read-out: Monomer IC50 range.
[2] abbreviates: read-out: IC50 range group of additional monomers (boronic acid, benzooxaborole, ligands).

T1 sequence (P20231 31-275): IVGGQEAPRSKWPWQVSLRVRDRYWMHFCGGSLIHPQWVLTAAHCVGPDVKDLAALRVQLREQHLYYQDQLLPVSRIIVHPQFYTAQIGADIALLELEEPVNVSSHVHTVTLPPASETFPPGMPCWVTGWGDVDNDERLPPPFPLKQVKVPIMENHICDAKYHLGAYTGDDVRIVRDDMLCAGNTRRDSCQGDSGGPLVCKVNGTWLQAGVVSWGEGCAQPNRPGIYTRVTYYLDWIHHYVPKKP

On to `NCc1cccc(C2CCN(C(=O)c3cccc(N4C[C@@H](O)[C@@H](O)C4)c3)CC2)c1` [T25B, (4-(3-(aminomethyl)phenyl)piperidin-1-yl)(3-((3S,4R)-3,4-dihydroxypyrrolidin-1-yl)phenyl)methanone], for which the IC50 by setting is: under setting [1], 0.0001 to 1 µM; (entry marked (1:10), read-out: IC50 range group of additional monomers marked (1:10)) 0.0001 to 1 µM.

`NCc1cccc(C2CCN(C(=O)c3cccc(C(=O)N4C[C@@H](O)[C@H](O)C4)c3)CC2)c1` [T26diol cis, (4-(3-(aminomethyl)phenyl)piperidin-1-yl)(3-((3R,4R)-3,4-dihydroxypyrrolidine-1-carbonyl)phenyl)methanone]: the IC50 by setting is: under setting [1], 1 to 10 µM; under setting [2], 1 to 10 µM.

`NCc1cccc(C2CCN(C(=O)c3cccc(C(=O)N4C[C@@H](O)[C@@H](O)C4)c3)CC2)c1` [T26diol trans, (4-(3-(aminomethyl)phenyl)piperidin-1-yl)(3-((3S,4R)-3,4-dihydroxypyrrolidine-1-carbonyl)phenyl)methanone]: the IC50 runs as follows: under setting [1], 1 to 10 µM; under setting [2], 1 to 10 µM.

Regarding `NCc1ccc(F)c(C2CCN(C(=O)c3cccc4cc(O)c(O)cc34)CC2)c1` [T27F, (4-(5-(aminomethyl)-2-fluorophenyl)piperidin-1-yl)(6,7-dihydroxynaphthalen-1-yl)methanone], the IC50 fell in the range of 1 to 10 µM under setting [1] and 1 to 10 µM under setting [2].

For the compound `NCc1cccc(C2CCN(C(=O)c3cccc(O)c3O)CC2)c1` [T28, (4-(3-(aminomethyl)phenyl)piperidin-1-yl)(2,3-dihydroxyphenyl)methanone], the IC50 is, setting by setting: under setting [1], 1 to 10 µM; under setting [2], 1 to 10 µM.

Turning to `NCc1cccc(C2CCN(C(=O)c3cccc(OCC(=O)N4C[C@@H](O)[C@@H](O)C4)c3)CC2)c1` [T29, 2-(3-(4-(3-(aminomethyl)phenyl)piperidine-1-carbonyl)phenoxy)-1-((3S,4R)-3,4-dihydroxypyrrolidin-1-yl)ethanone], under setting [1], the IC50 lay within 1 to 10 µM.

For the compound `NCc1cccc(C2CCN(C(=O)c3ccc(OCC(=O)N4C[C@@H](O)[C@@H](O)C4)cc3)CC2)c1` [T30, 2-(4-(4-(3-(aminomethyl)phenyl)piperidine-1-carbonyl)phenoxy)-1-((3S,4R)-3,4-dihydroxypyrrolidin-1-yl)ethanone], the IC50 lay in the range of 1 to 10 µM under setting [1] and 1 to 10 µM under setting [2].

In the case of `NCc1cccc(C2CCN(C(=O)c3cc4cc(O)ccc4[nH]3)CC2)c1` [T31A, (4-(3-(aminomethyl)phenyl)piperidin-1-yl)(5-hydroxy-1H-indol-2-yl)methanone], under setting [1], the IC50 was 0.0001 to 1 µM.

For `NCc1cccc(C2CCN(C(=O)c3cc4c(B(O)O)cccc4[nH]3)CC2)c1` [T32, 2-(4-(3-(aminomethyl)phenyl)piperidine-1-carbonyl)-1H-indol-4-ylboronic acid], the IC50 fell in the range of 1 to 10 µM under setting [1] and 1 to 10 µM under setting [2].

Take `NCc1cccc(C2CCN(C(=O)/C=C/c3ccc(B(O)O)cc3)CC2)c1` [T33, (E)-4-(3-(4-(3-(aminomethyl)phenyl)piperidin-1-yl)-3-oxoprop-1-enyl)phenylboronic acid]: the IC50 reads like this: under setting [1], 1 to 10 µM; under setting [2], 1 to 10 µM.

With `N=C(N)c1ccc2c(c1)C1(CCN(C(=O)/C=C/c3ccc(B(O)O)cc3)CC1)CO2` [T33SPAM, (E)-4-(3-(5-carbamimidoyl-2H-spiro[benzofuran-3,4′-piperidine]-1′-yl)-3-oxoprop-1-enyl)phenylboronic acid], the IC50 under setting [2] fell in the range of 1 to 10 µM.

As to `NCc1cccc(C2CCN(C(=O)/C=C/c3cccc(B(O)O)c3)CC2)c1` [T34, (E)-3-(3-(4-(3-(aminomethyl)phenyl)piperidin-1-yl)-3-oxoprop-1-enyl)phenylboronic acid], the IC50 under setting [1] lay within 1 to 10 µM and the IC50 under setting [2] lay in the range of 1 to 10 µM.

Regarding `NCc1cccc(C2CCN(C(=O)c3cccc(-c4cccc(B(O)O)c4)c3)CC2)c1` [T35, 3′-(4-(3-(aminomethyl)phenyl)piperidine-1-carbonyl)biphenyl-3-ylboronic acid], the IC50 fell in the range of 0.0001 to 1 µM under setting [1] and 0.0001 to 1 µM under setting [2].

With `NCc1ccc(F)c(C2CCN(C(=O)c3cccc(-c4cccc(B(O)O)c4)c3)CC2)c1` [T35F, 3′-(4-(5-(aminomethyl)-2-fluorophenyl)piperidine-1-carbonyl)biphenyl-3-ylboronic acid], the IC50 under setting [1] was 0.0001 to 1 µM and the IC50 under setting [2] lay in the range of 0.0001 to 1 µM.

As to `N=C(N)c1ccc2c(c1)C1(CCN(C(=O)c3cccc(-c4cccc(B(O)O)c4)c3)CC1)CO2` [T35SPAM, 3′-(5-carbamimidoyl-2H-spiro[benzofuran-3,4′-piperidine]-1′-ylcarbonyl)biphenyl-3-ylboronic acid], under setting [2], the half-maximal inhibitory concentration (IC50) is 0.0001 to 1 µM.

Regarding `NCc1ccc2c(c1)C1(CCN(C(=O)c3cccc(-c4cccc(B(O)O)c4)c3)CC1)CO2` [T35SPIRO, 3′-(5-(aminomethyl)-2H-spiro[benzofuran-3,4′-piperidine]-1′-ylcarbonyl)biphenyl-3-ylboronic acid], the IC50 runs as follows: under setting [1], 1 to 10 µM; under setting [2], 1 to 10 µM.

For the compound `NCc1cccc(C2CCN(C(=O)c3ccc(-c4ccc5c(c4)COB5O)cc3)CC2)c1` [T36, (4-(3-(aminomethyl)phenyl)piperidin-1-yl)(4-(1-hydroxy-1,3-dihydrobenzo[c][1,2]oxaborol-5-yl)phenyl)methanone], the IC50 reads like this: under setting [1], 1 to 10 µM; under setting [2], 1 to 10 µM.

As for `NCc1cccc(C2CCN(C(=O)c3cccc(-c4ccc5c(c4)COB5O)c3)CC2)c1` [T36M, (4-(3-(aminomethyl)phenyl)piperidin-1-yl)(3-(1-hydroxy-1,3-dihydrobenzo[c][1,2]oxaborol-5-yl)phenyl)methanone], the IC50 fell in the range of 0.0001 to 1 µM under setting [1] and 0.0001 to 1 µM under setting [2].

In the case of `NCc1cccc(C2CCN(C(=O)c3cccc4sc(B(O)O)cc34)CC2)c1` [T37, 4-(4-(3-(aminomethyl)phenyl)piperidine-1-carbonyl)benzo[b]thiophen-2-ylboronic acid], the IC50 runs as follows: under setting [1], 1 to 10 µM; under setting [2], 1 to 10 µM.

Consider `NCc1cccc(C2CCN(C(=O)c3cccc4sc(Br)cc34)CC2)c1` [T37A, (4-(3-(aminomethyl)phenyl)piperidin-1-yl)(2-bromobenzo[b]thiophen-4-yl)methanone], for which the IC50 under setting [1] lay in the range of 1 to 10 µM.

For the compound `NCc1cccc(C2CCN(C(=O)/C=C/c3ccc(O)c(CO)c3)CC2)c1` [T40, (E)-1-(4-(3-(aminomethyl)phenyl)piperidin-1-yl)-3-(4-hydroxy-3-(hydroxymethyl)phenyl)prop-2-en-1-one], the IC50 by setting is: under setting [1], 1 to 10 µM; under setting [2], 1 to 10 µM.

With `NCc1cccc(C2CCN(C(=O)/C=C/c3ccc(CO)c(O)c3)CC2)c1` [T41, (E)-1-(4-(3-(aminomethyl)phenyl)piperidin-1-yl)-3-(3-hydroxy-4-(hydroxymethyl)phenyl)prop-2-en-1-one], the IC50 by setting is: under setting [1], 0.0001 to 1 µM; under setting [2], 0.0001 to 1 µM.

For `NCc1cccc(C2CCN(C(=O)/C=C/c3ccc(C4CC4)c(O)c3)CC2)c1` [T41CYCLO, (E)-1-(4-(3-(aminomethyl)phenyl)piperidin-1-yl)-3-(4-cyclopropyl-3-hydroxyphenyl)prop-2-en-1-one], the IC50 under setting [1] fell in the range of 0.0001 to 1 µM.

For `CC(C)(O)c1ccc(/C=C/C(=O)N2CCC(c3cccc(CN)c3)CC2)cc1O` [T41GEM, (E)-1-(4-(3-(aminomethyl)phenyl)piperidin-1-yl)-3-(3-hydroxy-4-(2-hydroxypropan-2-yl)phenyl)prop-2-en-1-one], the IC50 reads like this: under setting [1], 0.0001 to 1 µM; under setting [2], 0.0001 to 1 µM.

As to `NCc1cccc(C2CCN(C(=O)/C=C/c3cccc(O)c3CO)CC2)c1` [T42], the IC50 is, setting by setting: under setting [1], 1 to 10 µM; under setting [2], 1 to 10 µM.

Turning to `NCc1cccc(C2CCN(C(=O)/C=C/c3cc(O)c(O)c(O)c3)CC2)c1` [T43, (E)-1-(4-(3-(aminomethyl)phenyl)piperidin-1-yl)-3-(3,4,5-trihydroxyphenyl)prop-2-en-1-one], the IC50 is 0.0001 to 1 µM under setting [1] and 0.0001 to 1 µM under setting [2].

Turning to `NCc1cccc(C2CCN(C(=O)c3cccc4cc(CO)c(O)cc34)CC2)c1` [T44, (4-(3-(aminomethyl)phenyl)piperidin-1-yl)(7-hydroxy-6-(hydroxymethyl)naphthalen-1-yl)methanone], the IC50 is 1 to 10 µM under setting [1] and 1 to 10 µM under setting [2].

For the compound `NCc1cccc(C2CCN(C(=O)c3ccc(B(O)O)c4cccnc34)CC2)c1` [T51], the IC50 under setting [2] is 10 to 65 µM.

Take `NCc1cccc(C2CCN(C(=O)c3cccc(OCCC(=O)N4C[C@@H](O)[C@@H](O)C4)c3)CC2)c1` [T53, 3-(3-(4-(3-(aminomethyl)phenyl)piperidine-1-carbonyl)phenoxy)-1-((3S,4R)-3,4-dihydroxypyrrolidin-1-yl)propan-1-one]: the IC50 by setting is: under setting [1], 0.0001 to 1 µM; under setting [2], 0.0001 to 1 µM.

Take `NCc1cccc(C2CCN(C(=O)c3cccc(O)c3)CC2)c1` [T53B, (4-(3-(aminomethyl)phenyl)piperidin-1-yl)(3-hydroxyphenyl)methanone]: the IC50 under setting [1] was 1 to 10 µM.

Consider `NCc1cccc(C2CCN(C(=O)Cc3ccc(O)c(F)c3)CC2)c1` [T54A, 1-(4-(3-(aminomethyl)phenyl)piperidin-1-yl)-2-(3-fluoro-4-hydroxyphenyl)ethanone], for which, under setting [1], the IC50 lay within 1 to 10 µM.

Take `NCc1ccc2c(c1)C1(CCN(C(=O)Cc3ccc(B(O)O)c(F)c3)CC1)CO2` [T54BASPIRO]: the IC50 under setting [2] lay in the range of 1 to 10 µM.
